Assay results published in PubChem BioAssay (NCI).
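Assay format: 96-well plates, 48-hour exposure. GI50: concentration for 50% inhibition of growth. TGI: total growth inhibition.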

Columns and labels:
Experiment in all cases: inhibition of tumour cell growth, NCI panel, 48 h
786-0 renal = test system: 786-0 renal
DU-145 prostate = test system: DU-145 prostate
EKVX NSCLC = test system: EKVX NSCLC
HOP-92 NSCLC = test system: HOP-92 NSCLC
MCF7 breast = test system: MCF7 breast
MDA-MB-231 breast = test system: MDA-MB-231 breast
OVCAR-4 ovarian = test system: OVCAR-4 ovarian
RXF 393 renal = test system: RXF 393 renal
SF-295 CNS = test system: SF-295 CNS
UACC-62 melanoma = test system: UACC-62 melanoma

Structure (SMILES) | TGI (786-0 renal) [µM] | TGI (DU-145 prostate) [µM] | TGI (EKVX NSCLC) [µM] | TGI (HOP-92 NSCLC) [µM] | TGI (MCF7 breast) [µM] | TGI (MDA-MB-231 breast) [µM] | TGI (OVCAR-4 ovarian) [µM] | TGI (RXF 393 renal) [µM] | TGI (SF-295 CNS) [µM] | TGI (UACC-62 melanoma) [µM] | GI50 (EKVX NSCLC) [µM] | GI50 (OVCAR-4 ovarian) [µM] | GI50 (SF-295 CNS) [µM]
COc1cc(Br)cc2cc(-c3cn4ccsc4n3)c(=O)oc12 | > 100 | > 100 | > 100 | 71.9 | 38.6 | 80.9 | > 100 | 75.7 | 76.6 | 75.9 |  |  | 
ClCCN1CCC2(CC1)SSC1(CCN(CCCl)CC1)S2 | > 100 | > 100 |  | 29.2 | 39.6 | > 100 | > 100 |  | 92.5 | 71 |  |  | 
COC(=O)c1cc(=O)nc2sc3cccc(C)c3n12 | 47.3 | > 100 | > 100 | 69.1 | > 100 | > 100 | > 100 | > 100 | > 100 | > 100 |  |  | 
CN1C(=O)C2CCC(=O)N2c2cccnc21 (centres undefined) | > 100 | > 100 | > 100 |  | > 100 | > 100 | > 100 |  | > 100 | > 100 |  |  | 
CC(C)CCS(=O)(=O)OCCCCOS(=O)(=O)CCC(C)C | > 100 |  | > 100 |  |  |  |  | > 100 | > 100 | > 100 |  |  | 
O=c1c2cc([N+](=O)[O-])cnc2sn1-c1ccc([N+](=O)[O-])cc1 | > 100 | > 100 | > 100 |  | > 100 | 53.6 | 85.7 |  | > 100 | > 100 |  |  | 
CC(=O)NC(Cc1ccc(O)cc1)C(=O)O (centres undefined) | > 100 | > 100 | > 100 | > 100 | > 100 | > 100 | > 100 | > 100 | > 100 | > 100 |  |  | 
O=c1[nH]c(Nc2cccc(CC(F)(F)F)c2)nc2nc[nH]c12 | > 100 | > 100 | > 100 | > 100 | > 100 | > 100 | > 100 |  | > 100 | > 100 |  |  | 
O=c1ccc(-c2ccccc2)n[nH]1 | > 100 | > 100 | > 100 | > 100 |  | > 100 | > 100 | > 100 | > 100 | > 100 |  |  | 
N#Cc1c(-c2ccccc2)/c(=C\Nc2cccc(C(F)(F)F)c2)c(=O)n2c1nc1ccccc12 | > 100 |  | 74.2 |  | > 100 | > 100 | > 100 | 78.1 | > 100 |  |  |  | 
COc1ccc2c(c1)/C(=C/CCN(C)C)c1ccccc1S2 |  | > 100 |  | > 100 |  | > 100 |  | > 100 | > 100 |  |  |  | 
COc1ccc(C2CC(c3c(O)ccc4ccccc34)=NN2C(C)=O)cc1OC (centres undefined) | > 100 | 92 |  | > 100 | 71.5 | 56.5 | > 100 | 84.2 | > 100 | 29.7 |  |  | 
O=C(NC(=O)c1ccccc1[N+](=O)[O-])Nc1ccc(Oc2ncc(Br)cn2)c(Cl)c1 |  | 0.0902 |  |  |  |  |  | 0.0321 | 0.0465 |  | 0.868 | 7.58 | < 0.0184
